Activity calls are given as the source filed them. The rule behind the calls is not given here.
What was measured:
[1] = Metabolic stability in mouse liver microsomes assessed as intrinsic clearance; type: ADME, Microsome; conditions: read-out: CLH
[2] = Metabolic stability in human liver microsomes assessed as intrinsic clearance; type: ADME, Microsome; conditions: read-out: CLH
[3] = molecular target: T1, Indoleamine 2,3-dioxygenase 1 (Homo sapiens, UniProt P14902); experiment: Inhibition of IDO1 in human whole blood; type: tissue-based
Target sequence in this assay (P14902 whole entry): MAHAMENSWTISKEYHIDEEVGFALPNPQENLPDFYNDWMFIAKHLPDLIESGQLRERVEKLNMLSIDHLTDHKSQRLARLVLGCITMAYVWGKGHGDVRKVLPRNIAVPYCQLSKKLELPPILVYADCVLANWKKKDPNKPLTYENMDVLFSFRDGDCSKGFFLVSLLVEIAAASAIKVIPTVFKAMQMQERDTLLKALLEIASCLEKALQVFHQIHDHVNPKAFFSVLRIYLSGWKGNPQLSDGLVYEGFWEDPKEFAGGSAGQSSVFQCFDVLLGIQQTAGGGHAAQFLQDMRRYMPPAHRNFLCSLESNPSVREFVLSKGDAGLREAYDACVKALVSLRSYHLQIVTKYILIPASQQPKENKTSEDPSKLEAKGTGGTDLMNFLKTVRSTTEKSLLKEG

[4] = molecular target: Tryptophan 2,3-dioxygenase (Homo sapiens, UniProt P48775); experiment: Inhibition of TDO in HEK cells; type: cell-based
[5] = molecular target: T1, Indoleamine 2,3-dioxygenase 1; experiment: Inhibition of IDO1 in human SKOV3 cells; type: cell-based, SK-OV-3
Target sequence in this assay (P14902 whole entry): as above

[6] = molecular target: Indoleamine 2,3-dioxygenase 1 (Mus musculus) (UniProt P28776); experiment: In vivo inhibition of IDO1 in mouse assessed as reduction in LPS-induced kynurenine level at 30 mg/kg, po administered as single dose measured after 36 hrs relative to control; type: functional, organism-based
[7] = molecular target: Indoleamine 2,3-dioxygenase 1 (Mus musculus) (UniProt P28776); experiment: In vivo inhibition of IDO1 in mouse assessed as reduction in kynurenine level; type: functional
[8] = Metabolic stability in human hepatocytes assessed as intrinsic clearance measured per million cells; type: ADME, cell-based, Hepatocyte; conditions: read-out: CLH
[9] = Metabolic stability in human hepatocytes assessed as half life; type: ADME, cell-based, Hepatocyte
[10] = Metabolic stability in rat hepatocytes assessed as intrinsic clearance measured per million cells; type: ADME, cell-based, Hepatocyte; conditions: read-out: CLH
[11] = Metabolic stability in rat hepatocytes assessed as half life; type: ADME, cell-based, Hepatocyte
[12] = Metabolic stability in mouse hepatocytes assessed as intrinsic clearance measured per million cells; type: ADME, cell-based, Hepatocyte; conditions: read-out: CLH
[13] = Metabolic stability in mouse hepatocytes assessed as half life; type: ADME, cell-based, Hepatocyte
[14] = Half life in rat at 10 mg/kg, po; type: ADME, organism-based; conditions: in vivo
[15] = Half life in mouse at 10 mg/kg, po; type: ADME, organism-based; conditions: in vivo
[16] = AUC(0 to 72 hrs) in rat at 10 mg/kg, po; type: ADME, organism-based; design: time < 72 hr, route oral, dose 10 mg/kg; conditions: in vivo
[17] = Cmax in rat at 10 mg/kg, po; type: ADME, organism-based; design: route oral, dose 10 mg/kg; conditions: in vivo
[18] = AUC(0 to 72 hrs) in mouse at 10 mg/kg, po; type: ADME, organism-based; design: time < 72 hr, route oral, dose 10 mg/kg; conditions: in vivo
[19] = Cmax in mouse at 10 mg/kg, po; type: ADME, organism-based; design: route oral, dose 10 mg/kg; conditions: in vivo
hERG (KCNH2) [20] = molecular target: T2, hERG (KCNH2) (Homo sapiens, UniProt Q12809); experiment: Inhibition of human ERG assessed as reduction in channel tail current at 10 uM by patch clamp assay relative to control
hERG (KCNH2) [21] = molecular target: T2, hERG (KCNH2); experiment: Inhibition of human ERG at 10 uM relative to control
Cytochrome P450 3A4 = Cytochrome P450 3A4 (Homo sapiens, UniProt P08684); experiment: Inhibition of CYP3A4 (unknown origin); type: ADME
[22] = Plasma protein binding in mouse; type: ADME, cell-free; conditions: read-out: PPB (converted)
[23] = Plasma protein binding in human; type: ADME, cell-free; conditions: read-out: PPB
[24] = molecular target: T1, Indoleamine 2,3-dioxygenase 1; experiment: Binding affinity to IDO1 (unknown origin) assessed as change in melting temperature at 5 uM by thermal shift assay
Target sequence in this assay (P14902 whole entry, looked up): as the sequence (P14902 whole entry) above

[25] = molecular target: Indoleamine 2,3-dioxygenase 1 (Mus musculus, UniProt P28776); experiment: Inhibition of mouse IDO1 expressed in HEK cells; type: cell-based
Cytochrome P450 2C9 = Cytochrome P450 2C9 (Homo sapiens, UniProt P11712); experiment: Inhibition of CYP2C9 (unknown origin); type: ADME
Sequence of Cytochrome P450 2C9 (P11712 whole entry): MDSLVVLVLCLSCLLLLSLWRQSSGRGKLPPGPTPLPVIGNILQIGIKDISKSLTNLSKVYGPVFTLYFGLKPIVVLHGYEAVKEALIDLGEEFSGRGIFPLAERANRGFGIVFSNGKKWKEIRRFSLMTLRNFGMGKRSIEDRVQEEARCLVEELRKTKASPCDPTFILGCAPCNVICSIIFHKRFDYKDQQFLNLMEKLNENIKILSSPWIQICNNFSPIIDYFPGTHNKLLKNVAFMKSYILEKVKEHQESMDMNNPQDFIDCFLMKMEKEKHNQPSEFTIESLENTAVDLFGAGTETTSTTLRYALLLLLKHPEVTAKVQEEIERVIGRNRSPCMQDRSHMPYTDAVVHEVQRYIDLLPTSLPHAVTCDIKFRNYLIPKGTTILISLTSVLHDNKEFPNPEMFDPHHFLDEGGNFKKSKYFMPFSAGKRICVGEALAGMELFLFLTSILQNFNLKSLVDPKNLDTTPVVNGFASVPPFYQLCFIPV

Sequence of Tryptophan 2,3-dioxygenase (P48775 whole entry): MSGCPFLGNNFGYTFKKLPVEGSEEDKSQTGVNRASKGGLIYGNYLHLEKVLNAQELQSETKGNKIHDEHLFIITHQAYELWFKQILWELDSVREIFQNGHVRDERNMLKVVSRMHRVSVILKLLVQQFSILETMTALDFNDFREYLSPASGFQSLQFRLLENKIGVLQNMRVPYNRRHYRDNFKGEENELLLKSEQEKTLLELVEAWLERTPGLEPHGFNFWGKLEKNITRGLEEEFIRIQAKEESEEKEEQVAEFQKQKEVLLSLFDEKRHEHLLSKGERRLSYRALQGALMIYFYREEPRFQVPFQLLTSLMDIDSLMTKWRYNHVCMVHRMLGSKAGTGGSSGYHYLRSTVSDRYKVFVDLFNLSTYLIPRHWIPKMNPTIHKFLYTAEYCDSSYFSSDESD
T2 sequence (Q12809 whole entry): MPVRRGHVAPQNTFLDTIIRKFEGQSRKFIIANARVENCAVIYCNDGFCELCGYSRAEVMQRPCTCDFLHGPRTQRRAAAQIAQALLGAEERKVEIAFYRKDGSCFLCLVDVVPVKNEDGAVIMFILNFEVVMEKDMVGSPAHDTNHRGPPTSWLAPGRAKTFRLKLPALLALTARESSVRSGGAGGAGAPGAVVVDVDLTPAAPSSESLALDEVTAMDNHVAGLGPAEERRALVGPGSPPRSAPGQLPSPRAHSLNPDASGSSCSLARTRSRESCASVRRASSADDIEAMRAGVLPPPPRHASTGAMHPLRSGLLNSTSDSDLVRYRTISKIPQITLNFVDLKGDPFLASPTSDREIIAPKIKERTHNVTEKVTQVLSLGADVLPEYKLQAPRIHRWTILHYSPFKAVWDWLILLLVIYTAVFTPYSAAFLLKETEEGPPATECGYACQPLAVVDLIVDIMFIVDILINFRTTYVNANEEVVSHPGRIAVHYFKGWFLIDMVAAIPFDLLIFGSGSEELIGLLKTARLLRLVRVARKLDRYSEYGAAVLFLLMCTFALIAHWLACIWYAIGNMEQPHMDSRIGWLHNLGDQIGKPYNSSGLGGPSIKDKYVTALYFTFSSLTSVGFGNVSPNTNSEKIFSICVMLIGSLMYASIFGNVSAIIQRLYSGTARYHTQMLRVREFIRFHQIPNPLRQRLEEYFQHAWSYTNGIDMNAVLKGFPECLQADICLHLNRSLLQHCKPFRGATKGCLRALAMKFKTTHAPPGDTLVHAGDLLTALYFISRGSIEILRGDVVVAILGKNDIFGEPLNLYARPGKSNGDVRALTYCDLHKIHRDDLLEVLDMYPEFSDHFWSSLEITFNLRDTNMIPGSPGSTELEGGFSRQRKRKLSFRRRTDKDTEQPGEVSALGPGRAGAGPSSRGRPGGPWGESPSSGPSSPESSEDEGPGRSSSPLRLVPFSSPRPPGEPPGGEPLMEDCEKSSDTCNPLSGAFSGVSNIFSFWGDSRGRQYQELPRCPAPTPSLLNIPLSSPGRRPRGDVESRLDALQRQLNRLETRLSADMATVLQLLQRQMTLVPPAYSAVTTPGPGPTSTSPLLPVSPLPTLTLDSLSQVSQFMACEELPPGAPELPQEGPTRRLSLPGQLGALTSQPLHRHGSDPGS
Sequence of Indoleamine 2,3-dioxygenase 1 (Mus musculus, UniProt P28776) (P28776 whole entry): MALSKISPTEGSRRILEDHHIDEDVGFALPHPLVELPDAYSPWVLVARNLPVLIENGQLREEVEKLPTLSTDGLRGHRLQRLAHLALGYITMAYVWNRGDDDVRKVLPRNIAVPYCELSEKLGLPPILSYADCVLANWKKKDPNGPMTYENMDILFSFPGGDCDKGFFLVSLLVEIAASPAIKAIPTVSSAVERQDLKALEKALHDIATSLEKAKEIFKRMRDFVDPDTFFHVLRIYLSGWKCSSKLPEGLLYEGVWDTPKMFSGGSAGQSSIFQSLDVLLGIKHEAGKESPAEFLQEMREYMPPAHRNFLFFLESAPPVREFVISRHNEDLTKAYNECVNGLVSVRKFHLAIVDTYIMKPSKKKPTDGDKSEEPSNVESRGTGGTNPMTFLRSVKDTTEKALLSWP
Sequence of Indoleamine 2,3-dioxygenase 1 (Mus musculus) (P28776 whole entry, looked up): as the sequence (P28776 whole entry) above
Sequence of Cytochrome P450 3A4 (P08684 whole entry): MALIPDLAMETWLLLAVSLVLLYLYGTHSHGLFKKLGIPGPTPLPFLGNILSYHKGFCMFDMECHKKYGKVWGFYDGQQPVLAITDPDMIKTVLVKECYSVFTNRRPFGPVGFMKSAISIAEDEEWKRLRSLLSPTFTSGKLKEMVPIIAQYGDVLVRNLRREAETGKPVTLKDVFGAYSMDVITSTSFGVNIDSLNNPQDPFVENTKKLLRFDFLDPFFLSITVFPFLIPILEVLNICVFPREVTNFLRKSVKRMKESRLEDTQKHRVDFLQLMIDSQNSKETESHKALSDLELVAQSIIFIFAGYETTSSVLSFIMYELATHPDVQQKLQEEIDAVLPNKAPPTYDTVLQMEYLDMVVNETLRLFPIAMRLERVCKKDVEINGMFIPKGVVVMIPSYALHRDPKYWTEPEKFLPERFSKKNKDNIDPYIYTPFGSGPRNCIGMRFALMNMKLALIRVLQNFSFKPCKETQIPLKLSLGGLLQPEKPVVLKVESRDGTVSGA

CCC(C(=O)Nc1ccc(Cl)cc1)N1CCC2(CCOc3cc(C(F)(F)F)ccc32)CC1 (stereo not given)
microsomal CLint [1]: 39 µL/min/mg
microsomal CLint [2]: 22 µL/min/mg
IC50 [3]: 360 nM
IC50 [4]: 11800 nM
IC50 [5]: 12 nM

CC[C@H](C(=O)Nc1ccc(Cl)cc1)N1CCC2(CC1)COc1cc(C(F)(F)F)ccc12 (stereo in doubt)
microsomal CLint [1]: 48 µL/min/mg
microsomal CLint [2]: 17 µL/min/mg
IC50 [4]: 15500 nM
IC50 [5]: 109 nM

CC[C@H](C(=O)Nc1ccc(Cl)cn1)[C@H]1CC[C@]2(CC1)COc1cc(C(F)(F)F)ccc12
microsomal CLint [1]: 30 µL/min/mg
microsomal CLint [2]: 5.9 µL/min/mg
IC50 [3]: 320 nM
IC50 [4]: 26400 nM
IC50 [5]: 7 nM

CC(C(=O)Nc1ccc(Cl)cc1)N1CCC2(CCc3ccccc32)CC1 (racemic)
microsomal CLint [1]: 668 µL/min/mg
microsomal CLint [2]: 326 µL/min/mg
IC50 [4]: 39000 nM
IC50 [5]: 39 nM

C[C@@H](C(=O)Nc1ccc(Cl)cc1)[C@H]1CC[C@@]2(CC1)COc1cc(C(F)(F)F)ccc12
microsomal CLint [1]: 92 µL/min/mg
microsomal CLint [2]: 43 µL/min/mg
IC50 [4]: 10300 nM
IC50 [5]: 6.6 nM

O=C(Nc1ccc(Cl)cc1)C(CCO)N1CCC2(CC1)COc1cc(C(F)(F)F)ccc12 (stereo not given)
IC50 [4]: 9500 nM
IC50 [5]: 86 nM

C[C@@H](C(=O)Nc1ccc(Cl)cc1)[C@H]1CC[C@]2(CC1)COc1cc(C(F)(F)F)ccc12
microsomal CLint [1]: 4.5 µL/min/mg
microsomal CLint [2]: 3.7 µL/min/mg
IC50 [4]: 10500 nM
IC50 [5]: 69 nM

C[C@H](C(=O)Nc1ccc(Cl)cc1)[C@H]1CC[C@]2(CC1)COc1cc(C(F)(F)F)ccc12
inhibition [6]: Active
inhibition [7]: inactive
hepatocyte CLint [8]: 4 µL/min/1e6 cells
half-life [9]: 2.92 h
hepatocyte CLint [10]: 5.6 µL/min/1e6 cells
half-life [11]: 2.08 h
hepatocyte CLint [12]: 1.7 µL/min/1e6 cells
half-life [13]: 6.65 h
half-life [14]: 49 h
half-life [15]: 115 h
AUC(0-t) at 72 h [16]: 18.2 µM·h
Cmax [17]: 580 nM
AUC(0-t) at 72 h [18]: 105 µM·h
Cmax [19]: 2880 nM
inhibition at 10 µM (hERG (KCNH2) [20]): 44%
inhibition at 10 µM (hERG (KCNH2) [21]): 67%
IC50 (Cytochrome P450 3A4): 3100 nM
fraction unbound [22]: 0.005
fraction unbound [23]: 0.001
ΔTm [24]: 17.8 °C
IC50 [25]: 7.8 nM
microsomal CLint [1]: < 1 µL/min/mg
microsomal CLint [2]: < 1 µL/min/mg
IC50 [3]: 52 nM
IC50 [4]: 7300 nM
IC50 [5]: 3.9 nM

O=C(Nc1ccc(Cl)cc1)C(=O)N1CCC2(CC1)COc1cc(C(F)(F)F)ccc12
IC50 [3]: 1700 nM
IC50 [5]: 32 nM

CC[C@@H](C(=O)Nc1ccc(Cl)cc1)N1CCC2(CC1)COc1cc(C(F)(F)F)ccc12 (stereo in doubt)
inhibition at 10 µM (hERG (KCNH2) [21]): 85%
IC50 (Cytochrome P450 2C9): 5000 nM
ΔTm [24]: 15.2 °C
IC50 [25]: 38 nM
microsomal CLint [1]: 53 µL/min/mg
microsomal CLint [2]: 22 µL/min/mg
IC50 [3]: 360 nM
IC50 [4]: 11400 nM
IC50 [5]: 12 nM

From ChEMBL document CHEMBL4673358 (Bioorg Med Chem Lett, 2021)
